Test results published in US10835548B2, “Metronomic oral gemcitabine for cancer therapy” (priority 2016, dated 2020).
Read-outs that look alike come from different tables or passages of the source.

How the values were obtained:
[1] = system: CFPAC-1 pancreatic cancer xenografts; assay: 5FU injection followed by GEMORAL in CFPAC-1 xenografted mouse model; type: in vivo, BALB/c nude mice
Method: Pancreatic cancer monotherapy using 5-fluorouracil (5FU) injection is known. […] We investigated oral metronomic GEM administration as a second-line treatment in 5FU-non-responsive pancreatic tumors using a xenograft model. To prepare the xenografted mice used in the study, 1×10^6 human CFPAC-1 pancreatic cancer cells were transplanted subcutaneously on the right flank of 6 week old male BALB/c nude mice. Tumor growth was observed once a week, tumor volume was measured as L×W^2/2 by caliper, and mice were selected for inclusion in the study when their tumor volume reached about 131 cubic millimeters. […] The day on which mice were first dosed was designated “Day 0” of the study, and the study continued for 112 days. Mice of Group 1 were orally administered 10 mg/kg GEMORAL every other day (i.e., Q2D×56), beginning on day 0 of the study and extending through the end of the study. […] Beginning on day 63 of the study, the mice were orally administered 10 mg/kg GEMORAL every other day (i.e., Q2D×25) through the end of the study. […] Beginning on day 21 of the study, the mice were orally administered 10 mg/kg GEMORAL every other day (i.e., Q2D×46) through the end of the study. […] They were intraperitoneally injected with saline on days 0, 3, 6, and 9 of the study (i.e., Q3D×4). […]

[2] = intravenous infusion, human cancer patients; cited from earlier work
[3] = system: patient-derived human cholangiocarcinoma xenografts; assay: Xenografted mouse model of patient-derived human cholangiocarcinoma; type: in vivo; settings: Group 1: GEM 60 mg/kg i.p. Q3D×4
Method: This example describes a study in which the effects of gemcitabine upon mice into which portions of a human patient-derived cholangiocarcinoma were xenografted. The xenografted mice were then treated with one of five treatment regimens and the results observed.
To prepare the xenografted mice used in the study, primary human cholangiocarcinoma fragments obtained from human patients were injected into “stock” male BALB/c nude mice. Subsequently, tumor fragments (roughly 2-3 millimeters in diameter) were harvested from the “stock” mice and inoculated subcutaneously into the right flank of other male BALB/c nude mice. Tumor development in the inoculated mice was then observed, and 40 such mice were selected for inclusion in the study when their tumor volume reached about 180 cubic millimeters (volume was assessed by multiplying tumor length by ½ (tumor width squared) (i.e., L×W^2/2), length and width being measured using a caliper). The mice were divided into 5 groups of 8 mice each for the study, all mice in each group having tumors of approximately equal size. The day on which mice were first dosed was designated “Day 1” of the study, and the study continued for 76 days. The mice were divided into Groups 1, 2, 3, 4, and 5. Mice of each group were treated identically.
Mice of Group 1 were intraperitoneally injected with 60 mg/kg of GEM on days 1, 4, 7, and 10 of the study (i.e., Q3D×4) and were not further treated thereafter. […]
(§1) Mice of Group 5 were controls and were not administered GEM. They were intraperitoneally injected with saline on days 1, 4, 7, and 10 of the study (i.e., Q3D×4). Beginning on day 13 of the study, the mice were orally administered distilled, deionized water every other day (i.e., Q2D×32) through the end of the study.
The study was continued until day 76 and the body weight losses among the mice of the various Groups were observed. […] For Group 3, 6 of 8 mice were dead by day 10.
Values reflecting anti-tumor responses, as compared with vehicle treatment (T/C %, calculated as the ratio of average tumor volume in treatment group vs. average tumor volume in the control group {Group 5}, expressed as a percentage) on different study days are indicated in Table 1.

[4] = MTD of GEM intravenous infusion regime in human cancer patients (Fossella et al.); type: in vivo
Method: For GEM, others have determined MTD values for human cancer patients. For example, Fossella et al. (1997, J. Clin. Oncol. 15:310-316) estimated an MTD of 2,400 mg/m^2/week for a GEM intravenous infusion regime regime (2,400 mg/m^2 corresponding to 3,893 mg/60 kg for a human patient, equal to 64.988 mg/kg). Labeling for a commercial GEM product, marketed under the brand name GEMZAR (Eli Lilly and Co.) recommends an intravenous dosage of 1,000 or 1,250 mg/m^2. In details, GEMZAR dosage administration is conducted at a dose of 1,000 mg/m^2, corresponding to 1,622 mg/60 kg for a human patient, equal to 27.03 mg/kg, administered on Days 1 and 8 or Days 1, 8, and 15 of a 21-day cycle, or at a dose of 1,250 mg/m^2, corresponding to 2,027 mg/60 kg for a human patient, equal to 33.878 mg/kg, administered on Days 1, 8, and 15 of a 28-day cycle.

[5] = system: HuCCT1 cholangiocarcinoma xenografts; assay: Xenografted mouse model of human cholangiocarcinoma cell line HuCCT1; type: in vivo, BALB/c nude mice; settings: Group 1: GEM 60 mg/kg i.p. Q3D×4
Method: Example 3 is a study in which the effects of GEM upon mice into which cells of human cholangiocarcinoma cell line HuCCT1 were xenografted. The xenografted mice were then treated with one of five treatment regimens and the results observed over the study period of 90 days.
To prepare the xenografted mice used in the study, 1×10^6 HuCCT1 human cholangiocarcinoma cells were transplanted subcutaneously on the right flank of 6 week old male BALB/c nude mice. Tumor growth was observed once a week and the tumor volume was measured as L×W^2/2 by caliper. Tumor development in the xenografted mice was then observed, and 40 such mice were selected for inclusion in the study when their tumor volume reached about 124 cubic millimeters. The mice were divided into 5 groups of 8 mice each for the study. The day on which mice were first dosed was designated “Day 0” of the study, and the study continued for 90 days.
Mice of Group 1 were intraperitoneally injected with 60 mg/kg of GEM on days 0, 3, 6, and 9 of the study (i.e., Q3D×4) and were not further treated thereafter.
Mice of Group 2 were intraperitoneally injected with 60 mg/kg of GEM on days 0, 3, 6, and 9 of the study (i.e., Q3D×4). Beginning on day 13 of the study, the mice were orally administered 10 mg/kg GEM in the GEMORAL composition (hereinafter “10 mg/kg GEMORAL”) every other day (i.e., Q2D×40) through the end of the study.
Mice of Group 3 were intraperitoneally injected with 60 mg/kg of GEM on days 0, 3, 6, and 9 of the study (i.e., Q3D×4). Also beginning on day 1 of the study, the mice were orally administered 10 mg/kg GEMORAL every other day (i.e., Q2D×46) through the end of the study.
Mice of Group 4 were orally administered 10 mg/kg GEMORAL every other day (i.e., Q2D×46), beginning on day 1 of the study and extending through the end of the study.
as §1, with “0, 3, 6,” for “1, 4, 7,”, “9” for “10”, “Q2D×40)” for “Q2D×32)”
The study was continued until day 90 and body weight losses among the mice of the various Groups were observed. In Group 3, all mice lost over 20% body weight by day 12.
Values reflecting anti-tumor responses, as compared with vehicle treatment (T/C %) on different study days are indicated in Table 2. […] It is noteworthy that by day 12 the cumulative dose of GEM for Group 4 was only about 25% that of Group 1.

[6] = system: CFPAC-1 pancreatic cancer xenografts; assay: Xenografted mouse model of human pancreatic cancer cell line CFPAC-1; type: in vivo, BALB/c nude mice; settings: Group 1: GEM 120 mg/kg i.p. Q3D×23
Method: Example 4 is a study in which the effects of GEM upon mice into which cells of human pancreatic cancer cell line CFPAC-1 were xenografted.
To prepare the xenografted mice used in the study, 1×10^6 human CFPAC-1 pancreatic cancer cells were transplanted subcutaneously on the right flank of 6 week old male BALB/c nude mice. Tumor growth was observed once a week and the tumor volume was measured as L×W^2/2 by caliper. Tumor development in the xenografted mice was then observed, and 48 such mice were selected for inclusion in the study when their tumor volume reached about 141 cubic millimeters. The mice were divided into 6 groups of 8 mice each for the study. The day on which mice were first dosed was designated “Day 0” of the study, and the study continued for 91 days.
Mice of Group 1 were intraperitoneally injected with 120 mg/kg of GEM on day 0 and every third day thereafter through day 66 (i.e., Q3D×23) and were not further treated thereafter.
Mice of Group 2 were intraperitoneally injected with 120 mg/kg of GEM on days 0, 3, 6, and 9 of the study (i.e., Q3D×4). Beginning on day 12 of the study, the mice were orally administered 10 mg/kg GEM in the GEMORAL composition (hereinafter “10 mg/kg GEMORAL”) every other day (i.e., Q2D×28) through day 66; the mice were not further treated thereafter.
Mice of Group 3 were intraperitoneally injected with 120 mg/kg of GEM on days 0, 3, 6, and 9 of the study (i.e., Q3D×4). Beginning on day 12 of the study, the mice were orally administered 3 mg/kg GEM in the GEMORAL composition (hereinafter “3 mg/kg GEMORAL”) every day (i.e., QD×55) through day 66; the mice were not further treated thereafter.
Mice of Group 4 were orally administered 3 mg/kg GEMORAL every day (i.e., QD×92), beginning on day 0 of the study and extending through the end of the study.
Mice of Group 5 were orally administered 10 mg/kg GEMORAL every other day (i.e., Q2D×46), beginning on day 0 of the study and extending through the end of the study.
Mice of Group 6 were controls and were not administered GEM. […]

With O=c1[nH]cc(F)c(=O)[nH]1 [5FU, 5-fluorouracil] as the compound, how does the “anti-tumor response attributable to 5FU treatment” value ([1]; Group 2: 5FU 20 mg/kg i.p. thrice weekly, first 9 weeks) read?
The value was “No significant anti-tumor response”.

And the “anti-tumor response attributable to 5FU treatment” value ([1]; Group 3: 5FU 20 mg/kg i.p. thrice weekly, first 3 weeks)?
The value was “No significant anti-tumor response”.

For Nc1ccn([C@@H]2O[C@H](CO)[C@@H](O)C2(F)F)c(=O)n1 [GEM, gemcitabine], which MTD [2] is on record?
Its MTD is 2,400 mg/m^2/week.

And the T/C ([3]; Day 14)?
Its T/C is 52%.

What about the T/C ([3]; Day 42) of the same compound?
The T/C was 22%.

And the T/C ([3]; Day 73)?
Its T/C is 46%.

And the T/C ([3]; Day 76)?
The T/C was 49%.

What about the “tumor growth after end of dosing” value ([3]; after day 11) of the same compound?
The value was “significant tumor growth after completing the scheduled dosing”.

And the “mice dead (died or tumor size >1000 cubic millimeters)” value ([3]; by day 76)?
Its value is 4 of 8.

And the “MTD (corresponding dose for a human patient)” value ([4]; converted from 2,400 mg/m^2)?
The value was 3,893 mg/60 kg.

And the MTD ([4]; human, in vivo, converted from 2,400 mg/m^2, read-out: MTD (corresponding dose per body weight))?
The MTD was 65 mg/kg.

And the T/C ([5]; Day 12)?
Its T/C is 54%.

And the T/C ([5]; Day 37)?
Its T/C is 60%.

And the T/C ([5]; Day 58)?
Its T/C is 93%.

What about the T/C ([5]; Day 76) of the same compound?
The T/C was 96%.

What about the T/C ([5]; Day 90) of the same compound?
The T/C was 82%.

And the “mean survival time (MST)” value [5]?
Its value is 69 days.

What about the survival rate ([5]; day 90, Kaplan-Maier) of the same compound?
The survival rate was 50%.

And the “maximum tumor growth inhibition value” ([5]; on day 27)?
The value was 47%.

And the “days at which at least some mice were tumor free” value [6]?
Its value is 44 to 91 days.

What about the mice tumor free ([6]; at day 91) of the same compound?
The mice tumor free was 6/8.

And the “maximum anti-tumor response, T/C” value ([6]; on day 81)?
Its value is 0%.
